Assay results reported in patent US20160095810A1, “Cosmetic and/or dermatological compositions containing polyphenols stabilized by perfluoropolyether phosphates and use of perfluoropolyether phosphates as stabilizing agents for polyphenols” (BIO.LO.GA, priority 2003, published 2016).

Experiments:
[1] = stability of ascorbic acid in the cream, UV determination at 266.5 nm; assay type: physicochemical; settings: cream of Example 3, 4 months at room temperature then 45° C. for one month
Procedure: The stability of the ascorbic acid contained in the cream was determined as follows.
A series of samples of the cream contained in the said small plastic jars was kept for a period of 4 months at room temperature and then in an oven at 45° C. for one month, after which the ascorbic acid content of the cream was checked.
In order to determine the ascorbic acid content, 100 mg of cream were diluted in 100 ml of 0.1 M phosphate buffer at pH 6, and the thus obtained suspension was magnetically stirred in the dark for 20 minutes. Thereafter, 30 ml of the suspension were transferred to a 50 ml centrifuge tube and 15 ml of chloroform were added. The tube was shaken for 10 minutes and then centrifuged at 6000 rpm for 5 minutes. The upper aqueous phase was directly analyzed with a UV Vis Jasco V-350 spectrophotometer, using phosphate buffer as a blank and the ascorbic acid peak at 266.5 nm was measured.
The ascorbic acid concentration was determined by means of a calibration curve made from standard solutions containing 1.0, 1.5 and 2.0 mg ascorbic acid/100 ml phosphate buffer.

[2] = stability test of the cream, twelve weeks at 45° C., viscosity check and HPLC content; assay type: physicochemical; settings: cream of Example 1, twelve weeks at 45° C.; nominal tocopherol 5, Greenselect 0.5, Leucoselect 0.5
Procedure: The cream was packed in plastics containers of 50 ml and subjected to a test to confirm the stability. A series of samples of the cream contained in the said small plastic jars was kept in an oven at 45° C. for twelve weeks, after which the viscosity of the cream was checked and found unaltered with respect to the starting value.
In addition there was the verification of the amount of polyphenols and vitamin E present in the cream at the end of the twelve weeks at 45° C., by means of an HPLC method, using a Macherey-Nagel column, Nucleosil 100-5 C18, packed with 5 μm particles (150×4.6 mm internal diameter), and a pre-column system Nucleosil 100-5 C18, CC 8/4.
The determination of free tocopherol, carried out using methanol as the eluent in isocratic conditions, with a flow rate of 1 ml/min and λ 290 nm, gave a value of 5.2%.
The determination of the polyphenol concentration in the cream was carried out using a mobile phase in binary gradient as eluent, composed of: phase A=0.3% formic acid in water and phase B=methanol; flow rate 1 ml/min; λ=278 nm. In such conditions the Greenselect® has a retention time Rt=22.84 min and the Leucoselect® Rt=6.53 min.

Row | Compound | ascorbic acid lost by the end of the storage period [1] [%] | ascorbic acid concentration from the calibration curve ([1]; nominal 2 mg/100 ml) [mg/100 ml] | amount present in the cream at the end of storage (HPLC) [2] [%]
1 | O=C1O[C@H]([C@@H](O)CO)C(O)=C1O [ascorbic acid, Ascorbic acid] | 7.8 | 1.844 | 
2 | Cc1c(C)c2c(c(C)c1O)CC[C@@](C)(CCC[C@H](C)CCC[C@H](C)CCCC(C)C)O2 [free tocopherol, Tocopherol] |  |  | 5.2
